Test results reported in US5238936A, “Trisubstituted triazines” (Adir et Compagnie, priority 1991, dated 1993).

Tests used:
line DC-3F/AD [1] = assay: Cytotoxicity (Microculture Tetrazolium Assay): reversal of resistance to actinomycin D, line DC-3F/AD; assay type: cell-based, Chinese hamster; conditions: 4 days
Text: The pharmacological study of the compounds of the present invention consisted first of all in an evaluation in vitro carried out on resistant cells. The parameter measured is the cytotoxicity of the antitumour drug, quantified in the absence and in the presence of the reversing compound.
The cells are distributed on microplates and exposed to the cytotoxic compounds (actinomycin D for line DC-3F/AD and adriamycin for line KB-Al) at 9 concentrations (2 by 2 series dilutions). The compounds tested for their capacity to reverse MDR are added at the same time as the cytotoxic agent.
The cells are then incubated for 4 days. […] The results are expressed as a reversion factor (RF): PG,29 [formula]

resistant line P/388/VCR = assay: Antitumour activity in vivo: increase in antitumour activity of vincristine on murine leukaemia P 388/VCR; parameters: species or system murine; female B6D2Fl mice; conditions: with vincristine […] i.p., ± sem, no compound: 146 ± 2
Text: This study was completed by an in vivo study, using a murine leukaemia resistant to vincristine (P/388/VCR) and using the compounds in association with vincristine.
The sensitive parent line P 388 (murine leukaemia) and the sub-line resistant to vincristine, P 388/VCR, were supplied by NCI (Frederick, USA). The tumour cells (10^6 cells) were inoculated on day 0 into the intraperitoneal cavity of female B6D2Fl mice (Iffa Credo, France) weighing from 18 to 20 g (groups of 8 to 10 animals).
Every day for 4 days, starting from day 1, the animals received: […]
30 to 60 minutes later, an administration by the i.p. route of 0.25 mg/kg of vincristine (used as a reference antitumour agent).
The tumour activity is expressed as follows: [formula]
The values are mean values obtained in independent experiments (± sem when n is greater than or equal to 3).

line DC-3F/AD [2] = assay: Flow cytometry: intracellular accumulation of adriamycin by cells of the line DC-3F/AD; assay type: cell-based, Chinese hamster; conditions: ADR 50 μM, 5 hours
Text: Also measured was the effect of the compounds on the intracellular concentration of the cytotoxic agent. In effect, the known compounds for reversing MDR act by increasing the intracellular concentration of cytotoxic agent. This effect is the consequence of inhibiting the action of gP 170 which is responsible for the efflux of the drug.
By measuring that fluorescence, it is thus possible to obtain a relative measurement of the intracellular concentration of ADR.
The cells 500×10^3 per ml were exposed simultaneously to ADR at a fixed concentration (50 μM) and to the tested compounds at various concentrations. After 5 hours' incubation, the intracellular accumulation of ADR was evaluated by FCM. […] The analysis of each of the samples was carried out on a total of 10,000 cells at a rate of 1,000 cells per second.
The results were presented in the form of linear histograms of the intracellular ADR fluorescence.
Expression of the results: for each of the histograms the mean fluorescence per channel (MEAN) was determined by the information system of the apparatus. For all experiments:
a negative control (cells without ADR) fixed the autofluorescence threshold.
a positive control (cells with ADR) determined the MEAN value=MN1.
the "test" tubes (cells with ADR and with compound) were used to determine, for each of the compounds and at each of the concentrations, the MEAN values=MN2.
The results are expressed in the form of variations from the mean fluorescence obtained for each of the "test" tubes (MN2) in relation to the mean fluorescence obtained with the positive control (MNl): VAR-MEAN=MN2-MN1. The parameter expressed is thus the increase in ADR fluorescence in the presence of the tested compounds.

[3] = 100 mg/kg i.p. daily for 4 days

SMILES | Reversion factors (cytotoxicity) with the line DC-3F/AD (line DC-3F/AD [1]; 0.5 μM compound) | Reversion factors (cytotoxicity) with the line DC-3F/AD (line DC-3F/AD [1]; 1 μM compound) | Reversion factors (cytotoxicity) with the line DC-3F/AD (line DC-3F/AD [1]; 5 μM compound) | T/C % (resistant line P/388/VCR; 50 mg/kg i.p. daily for 4 days) | T/C % (resistant line P/388/VCR; [3]) | VAR-MEAN (increase in ADR fluorescence), line DC-3F/AD (line DC-3F/AD [2]; 1.0 μM compound) | VAR-MEAN (increase in ADR fluorescence), line DC-3F/AD (line DC-3F/AD [2]; 5.0 μM compound) | VAR-MEAN (increase in ADR fluorescence), line DC-3F/AD (line DC-3F/AD [2]; 10 μM compound) | VAR-MEAN (increase in ADR fluorescence), line DC-3F/AD (line DC-3F/AD [2]; […] compound)
C=CCNc1nc(NCC=C)nc(N2CCC(NCC3c4ccccc4COc4ccccc43)CC2)n1 (racemic) [Example 19, 2,4-diallylamino-6-{4-[((R,S)-6,11-dihydro-dibenzo[b,e]oxepin-11-yl)methylamino]piperidin-1-yl}-1,3,5-triazine] | 3.8 | 63 | 2525 | 167 ± 7% | 184 ± 7% | 13.1 | 25.5 | 25.3 | 22.6
C=CCNc1nc(NCC=C)nc(N2CCC(NCC3c4ccccc4N(C)S(=O)(=O)c4cc(Cl)ccc43)CC2)n1 (racemic) [Example 21, 2,4-diallylamino-6-{4-[(8-chloro-10,10-dioxo-11-methyl-(R,S)-dibenzo[c,f]thiazepin-5-yl)methylamino]piperidin-1-yl}-1,3,5-triazine] | 1.2 | 18 | 2804 | 154% | 148% | 8.1 | 22.8 | 24.1 | 21.1
C=CCNc1nc(NCC=C)nc(N2CCC(NCC3c4ccccc4-c4ccccc43)CC2)n1 [Example 13, 2,4-diallylamino-6-{4-[(fluoren-9-yl)methylamino]piperidin-1-yl}-1,3,5-triazine] | 2.1 | 7.1 | 170 | – | – | 8.1 | 19.6 | 23.2 | 12.0
CNc1nc(NC)nc(N2CCC(NCC3c4ccccc4CCc4ccccc43)CC2)n1 [Example 14, 2,4-dimethylamino-6-{4-[(10,11-dihydro-5H-dibenzo[a,d]cyclohepten-5-yl)methylamino]piperidin-1-yl}-1,3,5-triazine] | 1.3 | 7.8 | 187 | – | – | 12.3 | 29.4 | 30.6 | 14.5
C=CCNc1nc(NCC=C)nc(NCCN2CCC(NCC3c4ccccc4CCc4ccccc43)CC2)n1 [Example 15, 2,4-diallylamino-6-(2-[4-(10,11-dihydro-5H-dibenzo-[a,d]cyclohepten-5-ylmethylamino)piperidin-1-yl]ethylamino}-1,3,5-triazine] | 0.8 | 1 | 120 | – | – | 10.1 | 13.7 | 12.4 | 12.4
C=CCNc1nc(NCC=C)nc(NCC(O)CN2CCC(NC3c4ccccc4CCc4ccccc43)CC2)n1 (stereo not shown) [Example 16, 2,4-diallylamino-6-{3-[4-(10,11-dihydro-5H-dibenzo[a,d]cyclohepten-5-ylamino)piperidin-1-yl]-2-hydroxypropylamino}-1,3,5-triazine] | 1 | 0.9 | 1.8 | – | – | 9.9 | 10.4 | 12.9 | 11.8
C=CCNc1nc(NCC=C)nc(NCC(O)CN2CCC(NCC3c4ccccc4CCc4ccccc43)CC2)n1 (stereo not shown) [Example 17, 2,4-diallylamino-6-{3-[4-(10,11-dihydro-5H-dibenzo[a,d]cyclohepten-5-ylmethylamino)piperidin-1-yl]-2-hydroxypropylamino}-1,3,5-triazine] | 0.8 | 0.8 | 1.1 | – | – | 9.4 | 10.5 | 12.6 | 11.0
C=CCNc1nc(N)nc(N2CCC(NCC3c4ccccc4CCc4ccccc43)CC2)n1 [Example 18, 2-allylamino-4-amino-6-{4-[(10,11-dihydro-5H-dibenzo[a,d]cyclohepten-5-yl)methylamino]piperidin-1-yl}-1,3,5-triazine] | 1.2 | 3 | 421 | – | – | 5.5 | 6.7 | 11.0 | 7.4
C=CCNc1nc(NCC=C)nc(N2CCC(CNC3c4ccccc4CCc4ccccc43)CC2)n1 [Example 23, 2,4-diallylamino-6-{4-[(10,11-dihydro-5H-dibenzo[a,d]cyclohepten-5-yl)aminomethyl]piperidin-1-yl}-1,3,5-triazine] | – | 1.4 | 173 | – | – | 10.0 | 14.0 | 20.5 | 14.6
C=CCNc1nc(NCC=C)nc(N2CCN(NCC3c4ccccc4CCc4ccccc43)CC2)n1 [Example 24, 2,4-diallylamino-6-{4-[(10,11-dihydro-5H-dibenzo[a,d]cyclohepten-5-yl)methylamino]piperazin-1-yl}-1,3,5-triazine] | 2.5 | 14 | 329 | – | – | 12.8 | 21.1 | 28.2 | 16.9
C=CCNc1nc(NCC=C)nc(N2CCN(CC3c4ccccc4CCc4ccccc43)CC2)n1 [Example 25, 2,4-diallylamino-6-{4-[(10,11-dihydro-5H-dibenzo[a,d]cyclohepten-5-yl)methyl]piperazin-1-yl}-1,3,5-triazine] | – | 13 | 464 | – | – | 9.9 | 17.6 | 24.5 | 14.7
C=CCNc1nc(NCC=C)nc(N2CCC(N(C)CC3c4ccccc4CCc4ccccc43)CC2)n1 [Example 30, 2,4-diallylamino-6-{4-[N-((10,11-dihydro-5H-dibenzo[a,d]cyclohepten-5-yl)methyl)-N-methylamino]piperidin-1-yl}-1,3,5-triazine] | – | 2.3 | 834.0 | – | – | 5.9 | 17.8 | 19.0 | 12.3
